Calls of active or inactive are those of the source.
How the values were obtained:
BJ [1] = assay: BJ-TERT fibroblast viability loss – cell-based, RAS-independent, luminescence, dose response (AID 1933); assay type: functional; settings: Homo sapiens
BJ [2] = assay: cells; assay type: functional, cell-based; settings: Homo sapiens
BJ [3] = assay: BJ-TERT-LT-ST fibroblast viability loss – cell-based, RAS-independent, luminescence, dose response (AID 1935); assay type: functional; settings: Homo sapiens;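 note: BJ fibroblasts immortalized with TERT plus LT and ST oncogenes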
[4] = DRD fibroblast viability loss – cell-based, non-viral oncogenic, luminescence, dose response (AID 1934); assay type: functional; settings: Homo sapiens
[5] = biological target: FAD-linked sulfhydryl oxidase ALR (Homo sapiens, UniProt P55789); assay: ALR-catalysed DTT oxidation blockers – biochemical, H2O2 detection, luminescence, cherry-pick, dose response (AID 493248)
Chain of FAD-linked sulfhydryl oxidase ALR (P55789 whole entry): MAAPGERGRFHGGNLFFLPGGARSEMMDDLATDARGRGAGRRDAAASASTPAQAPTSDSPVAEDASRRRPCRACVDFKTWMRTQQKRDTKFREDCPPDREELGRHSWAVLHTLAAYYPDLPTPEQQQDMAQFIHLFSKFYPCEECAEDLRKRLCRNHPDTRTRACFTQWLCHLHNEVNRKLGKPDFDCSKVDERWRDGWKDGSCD

Large T antigen = Large T antigen (Simian virus 40, UniProt P03070); assay type: functional, Betapolyomavirus macacae;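 note: Confirmatory-stage PubChem screen for compounds that inhibit SV40 T antigen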
Chain of Large T antigen (P03070 whole entry): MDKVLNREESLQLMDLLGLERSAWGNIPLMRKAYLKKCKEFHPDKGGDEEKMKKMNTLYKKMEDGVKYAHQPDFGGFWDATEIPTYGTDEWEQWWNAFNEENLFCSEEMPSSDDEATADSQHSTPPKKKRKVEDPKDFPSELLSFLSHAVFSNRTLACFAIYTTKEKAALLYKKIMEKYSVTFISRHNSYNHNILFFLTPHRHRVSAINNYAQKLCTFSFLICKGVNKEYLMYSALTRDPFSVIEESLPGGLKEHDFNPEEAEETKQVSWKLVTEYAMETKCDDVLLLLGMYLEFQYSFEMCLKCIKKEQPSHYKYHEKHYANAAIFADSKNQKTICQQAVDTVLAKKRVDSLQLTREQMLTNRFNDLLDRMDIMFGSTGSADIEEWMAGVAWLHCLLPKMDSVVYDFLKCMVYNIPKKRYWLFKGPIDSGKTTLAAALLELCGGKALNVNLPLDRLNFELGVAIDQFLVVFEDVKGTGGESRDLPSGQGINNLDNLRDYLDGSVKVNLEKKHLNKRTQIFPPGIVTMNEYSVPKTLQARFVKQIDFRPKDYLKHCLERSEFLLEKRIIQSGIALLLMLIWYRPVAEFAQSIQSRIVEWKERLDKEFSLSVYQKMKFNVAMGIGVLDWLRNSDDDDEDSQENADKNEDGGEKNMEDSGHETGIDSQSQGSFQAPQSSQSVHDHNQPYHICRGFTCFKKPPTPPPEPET

Genome polyprotein = Genome polyprotein (dengue virus type 2, UniProt P29990); assay: flavivirus cap methylation enzyme inhibition – biochemical, confirmation dose response, primary screen (AID 588689); assay type: functional
Chain of Genome polyprotein (P29990 2492-3391 limits assumed): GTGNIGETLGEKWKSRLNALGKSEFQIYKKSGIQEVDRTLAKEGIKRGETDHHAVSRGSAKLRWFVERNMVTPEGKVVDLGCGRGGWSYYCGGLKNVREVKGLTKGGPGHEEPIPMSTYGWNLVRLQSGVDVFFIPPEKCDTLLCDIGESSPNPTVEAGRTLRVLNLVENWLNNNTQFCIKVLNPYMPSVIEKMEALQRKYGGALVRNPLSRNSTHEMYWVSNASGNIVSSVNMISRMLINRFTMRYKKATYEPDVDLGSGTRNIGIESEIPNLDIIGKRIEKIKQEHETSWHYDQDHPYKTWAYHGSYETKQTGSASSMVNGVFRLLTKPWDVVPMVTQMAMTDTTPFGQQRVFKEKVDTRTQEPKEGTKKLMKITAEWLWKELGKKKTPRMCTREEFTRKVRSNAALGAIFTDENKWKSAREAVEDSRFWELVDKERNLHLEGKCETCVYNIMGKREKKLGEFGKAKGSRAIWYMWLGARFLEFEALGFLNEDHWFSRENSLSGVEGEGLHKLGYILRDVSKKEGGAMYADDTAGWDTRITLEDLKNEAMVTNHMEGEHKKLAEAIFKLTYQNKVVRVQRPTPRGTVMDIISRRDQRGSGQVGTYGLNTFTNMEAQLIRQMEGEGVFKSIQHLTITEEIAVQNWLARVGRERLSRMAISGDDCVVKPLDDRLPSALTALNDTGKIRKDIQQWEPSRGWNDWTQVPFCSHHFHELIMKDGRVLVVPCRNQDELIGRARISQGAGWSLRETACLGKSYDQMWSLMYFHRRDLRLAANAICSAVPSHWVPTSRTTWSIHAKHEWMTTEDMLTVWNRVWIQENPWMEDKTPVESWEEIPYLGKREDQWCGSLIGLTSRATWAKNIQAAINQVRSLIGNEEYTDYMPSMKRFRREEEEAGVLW

[6] = Luminescence Cell-Based Dose Response HTS to Identify Activators of Luciferase Translation or Activity in H4 […] Cells. [Related pubchem assays: 1829 (Project Summary), 1814 (Primary HTS)]; assay type: functional
H4 = assay: Luminescence Cell-Based Dose Response HTS to Identify Activators of 5'UTR Stem-Loop Driven Prion Protein mRNA Translation in H4 Neuroglioblastoma Cells. [Related pubchem assays: 1829 (Project Summary), 1814 (Primary HTS)]; assay type: functional; settings: Homo sapiens
[7] = biological target: T1, Calpain-2 catalytic subunit (Sus scrofa, UniProt P43367); assay: m-calpain protease blockers, concentration series – biochemical, fluorogenic peptide substrate, dose response (AID 1420); assay type: functional
T1 sequence (P43367 whole entry): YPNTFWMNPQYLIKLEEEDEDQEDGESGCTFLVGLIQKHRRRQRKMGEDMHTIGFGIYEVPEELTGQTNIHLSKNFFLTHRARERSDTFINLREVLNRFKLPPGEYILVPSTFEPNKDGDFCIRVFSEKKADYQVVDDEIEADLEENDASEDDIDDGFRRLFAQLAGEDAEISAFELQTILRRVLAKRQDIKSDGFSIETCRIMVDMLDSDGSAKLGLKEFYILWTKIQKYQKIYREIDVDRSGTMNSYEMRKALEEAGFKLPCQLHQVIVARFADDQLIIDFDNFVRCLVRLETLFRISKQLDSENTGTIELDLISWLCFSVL

INS1 = assay: INS-1E survival protection against cytokine death – cell-based, luminescence, retest, dose response (AID 449756); assay type: functional; settings: Rattus norvegicus;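 note: cell death triggered by IL-1 beta plus TNF-alpha plus IFN-gamma mixture; protective hits raise ATP signal compared with cytokine alone wells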
[8] = microbe, parasite or virus in culture; assay type: functional; settings: Mycobacterium tuberculosis
[9] = NIH-3T3 fibroblast cytotoxicity, dose response, cytotoxicity control, cell-based, fluorescence, Alamar Blue, secondary assay (AID 2327); assay type: functional;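 note: NIH-3T3 mouse fibroblasts cultured with fluconazole at 8 µg/mL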
[10] = luciferase reporter signal suppression in cells – H4 neuroglioma cells, luminescence, dose response (AID 1990); assay type: functional, cell-based
[11] = Luminescence Cell-Based Dose Response HTS to Identify Inhibitors of 5'UTR Stem-Loop Driven Prion Protein mRNA Translation in H4 Neuroglioblastoma Cells. [Related pubchem assays: 1827 (Project Summary), 1813 (Primary HTS)]; assay type: functional
[12] = alpha-synuclein stem-loop luciferase translation blockers – H4 neuroglioma cells, luminescence, confirmation (AID 1988); assay type: functional, cell-based
[13] = fluconazole-exposed Candida albicans growth modulators – fluorescence, retest, confirmation (AID 2467); assay type: functional, cell-based
[14] = Trypanosoma cruzi growth suppression in host cells – NIH3T3 host cells, beta-gal luminescence, confirmation (AID 2044); assay type: functional, cell-based;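 note: intracellular parasites grown in NIH/3T3 mouse fibroblasts as host cells; luminescent beta-galactosidase reporter signal from transgenic T. cruzi replicating inside host cells; inhibitors lower the luminescence signal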
[15] = NIH3T3 cell viability loss – ATP luminescence, mouse fibroblasts, counter-screen, dose response (AID 2010); assay type: functional, cell-based;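 note: cells exposed to compound for about 90 hours before reading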

For `COc1ccccc1N=C(S)N(Cc1ccco1)Cc1cc2ccc(C)c(C)c2nc1O`, the EC50 (BJ [1]) was 0.717 µM (inconclusive), the EC50 (BJ [2]) was 20.2 µM (inconclusive) and the EC50 (BJ [3]) was 0.525 µM (active). For the same molecule, the EC50 [4] was 0.685 µM (active).
In the case of `Cc1cc(C)cc(-n2ncc3c2CCCC3NC(=O)c2cc(C)n(C)n2)c1` (stereo not given), the AC50 [5] is reported as 4.51 µM (active).
With `Cc1ccc(CNc2ccc(N3CCOCC3)cc2)cc1` the IC50 (Large T antigen) was 5.62 µM (active).
For `O=C(O)CN1C(=O)/C(=C\c2ccccc2OCc2ccc(Cl)cc2)SC1=S`, the IC50 (Genome polyprotein) was 43.3 µM (active).
For `O=C(Cc1cccs1)Nc1ccc(-c2nc3ccccc3[nH]2)cc1`, the EC50 [6] was 1.51 µM (active) and the EC50 (H4) was 0.236 µM (active).
In the case of `CC(C)(C)c1cc(-c2nnc(S)n2-c2ccccc2F)[nH]n1`, the AC50 [5] is reported as 2.1 µM (active).
With `O=[N+]([O-])c1ccc(N2CCN(c3ccc(O)cc3)CC2)cn1` the IC50 (Large T antigen) was 26.7 µM (active).
For `Oc1ccc(N2CCN(C(c3ccncc3)c3nnnn3C3CCCC3)CC2)cc1` (stereo not given), the IC50 (Large T antigen) was 5.61 µM (active).
For `CC(C)CCNc1nc2c(c(=O)n(Cc3cccc(F)c3)c(=O)n2C)n1C`, the IC50 [7] was 44.7 µM (not active).
In the case of `CCN(CC)c1ccc(NC(=O)c2cccc(C)c2OC)c(C)c1`, the IC50 (Large T antigen) is reported as 32 µM (active).
In the case of `COc1ccc(Nc2nc(N)c(C(=O)c3ccc(F)cc3)s2)cc1`, the EC50 (BJ [1]) is reported as 2.89 µM (inconclusive), the EC50 (BJ [2]) is reported as 54.4 µM (inconclusive) and the EC50 (BJ [3]) is reported as 37.5 µM (active). The EC50 [4] was 2.8 µM (inconclusive).
In the case of `COc1ccc(NC(=O)CN(C)C(=O)/C=C/c2ccc(S(=O)(=O)N3CCCCCC3)cc2)cc1`, the AC50 (INS1) is reported as 24.3 µM (active).
With `CC1(C)Nc2ccccc2N(CC(=O)N2CCCCC2)C1=O` the AC50 [5] was 1.96 µM (active).
With `Oc1ccccc1/C=N/NC(=S)NC1CC2CC1C1C=CCC21` (stereo not given) the CC50 [8] was 13.9 µM (active).
With `CC1CCCC/C1=N\NC(=S)NCCc1ccccc1` (stereo not given) the CC50 [8] was > 40 µM (active).
In the case of `CC(C)(C)C(=O)Nc1ccc(C(=O)N/N=C/c2ccccc2OC(=O)c2ccc(Cl)cc2)cc1`, the AC50 (INS1) is reported as 2.83 µM (active).
In the case of `COc1cc(/C=N/NC(=O)c2ccccc2O)ccc1OC(=O)CC1SC(=O)NC1=O` (stereo not given), the IC50 (Large T antigen) is reported as 35.1 µM (active).
With `CN(C)c1ccc(/C=N/NS(=O)(=O)c2ccc(Br)cc2)cc1` the AC50 [5] was 33.5 µM (active).
For `Cc1ccc(N/N=C2\CCS(=O)(=O)c3sccc32)cc1`, the IC50 [7] was > 50 µM (not active) and the AC50 [5] was 0.311 µM (active).
With `CC(C)[C@H]1C(=O)O[C@H](C(C)C)C(=O)N(C)[C@@H](C(C)C)C(=O)O[C@H](C(C)C)C(=O)N(C)[C@@H](C(C)C)C(=O)O[C@H](C(C)C)C(=O)N1C` [ENNIATIN B] the EC50 [9] was 3.22 µM (inconclusive), the EC50 [10] was 5.62 µM (active) and the EC50 [11] was > 120 µM (not active). For the same molecule, the EC50 [12] was > 120 µM (not active), the EC50 [13] was 0.374 µM (active) and the EC50 [14] was 0.853 µM (active). For the same molecule, the EC50 [15] was 3.66 µM (active) and the AC50 (INS1) was 2.99 µM (active).

— ChEMBL document CHEMBL1201862, “PubChem BioAssay data set” (2004)
